Assay results taken from ChEMBL document CHEMBL5335843, “Application of tobramycin benzyl ether as an antibiotic adjuvant capable of sensitizing multidrug-resistant Gram-negative bacteria to rifampicin” (2024).

What was measured:
Assay type in all cases: functional
[1] = test system: Pseudomonas aeruginosa; experiment: Antibiotic adjuvant activity against multi-drug resistant Pseudomonas aeruginosa clinical isolate PA259 assessed as inhibition of bacterial growth incubated for 18 hrs in presence of doxycycline by two fold broth microdilution checkerboard assay
[2] = test system: Escherichia coli; experiment: Antibacterial activity against multi-drug resistant Escherichia coli clinical isolate EC107115 assessed as inhibition of bacterial growth incubated for 18 hrs by two fold broth microdilution assay
[3] = test system: Acinetobacter baumannii; experiment: Antibiotic adjuvant activity against Acinetobacter baumannii ATCC 17978 assessed as rifampicin MIC incubated for 18 hrs in presence of Rifampicin by two fold broth microdilution checkerboard assay
[4] = test system: Escherichia coli; experiment: Antibiotic adjuvant activity against multi-drug resistant Escherichia coli clinical isolate EC94474 assessed as minocycline MIC incubated for 18 hrs in presence of minocycline by two fold broth microdilution checkerboard assay
[5] = test system: Pseudomonas aeruginosa; experiment: Antibiotic adjuvant activity against Pseudomonas aeruginosa PAO1 assessed as fold potentiation incubated for 18 hrs in presence of minocycline by two fold broth microdilution checkerboard assay
[6] = test system: Pseudomonas aeruginosa; experiment: Antibiotic adjuvant activity against Pseudomonas aeruginosa PAO1 assessed as minocycline MIC incubated for 18 hrs in presence of minocycline by two fold broth microdilution checkerboard assay
[7] = test system: Pseudomonas aeruginosa; experiment: Antibiotic adjuvant activity against multi-drug resistant Pseudomonas aeruginosa clinical isolate PA259 assessed as fold potentiation incubated for 18 hrs in presence of Rifampicin by two fold broth microdilution checkerboard assay
[8] = test system: Pseudomonas aeruginosa; experiment: Antibiotic adjuvant activity against multi-drug resistant Pseudomonas aeruginosa clinical isolate 101243 assessed as inhibition of bacterial growth incubated for 18 hrs in presence of Rifampicin by two fold broth microdilution checkerboard assay
[9] = test system: Escherichia coli; experiment: Antibiotic adjuvant activity against multi-drug resistant Escherichia coli clinical isolate EC107115 assessed as fold potentiation incubated for 18 hrs in presence of minocycline by two fold broth microdilution checkerboard assay
[10] = test system: Staphylococcus aureus; experiment: Antibacterial activity against methicilin-resistant Staphylococcus aureus assessed as inhibition of bacterial growth incubated for 18 hrs by two fold broth microdilution assay
[11] = test system: Escherichia coli; experiment: Antibiotic adjuvant activity against multi-drug resistant Escherichia coli clinical isolate EC107115 assessed as doxycycline MIC incubated for 18 hrs in presence of doxycycline by two fold broth microdilution checkerboard assay
[12] = test system: Pseudomonas aeruginosa; experiment: Antibiotic adjuvant activity against multi-drug resistant Pseudomonas aeruginosa clinical isolate PA262 assessed as fold potentiation incubated for 18 hrs in presence of Rifampicin by two fold broth microdilution checkerboard assay
[13] = test system: Escherichia coli; experiment: Antibiotic adjuvant activity against multi-drug resistant Escherichia coli clinical isolate 107115 assessed as inhibition of bacterial growth incubated for 18 hrs in presence of Rifampicin by two fold broth microdilution checkerboard assay
[14] = test system: Escherichia coli; experiment: Antibiotic adjuvant activity against multi-drug resistant Escherichia coli clinical isolate EC107115 assessed as fractional inhibitory concentration index incubated for 18 hrs in presence of minocycline by two fold broth microdilution checkerboard assay
[15] = test system: Escherichia coli; experiment: Antibiotic adjuvant activity against multi-drug resistant Escherichia coli clinical isolate EC94474 assessed as doxycycline MIC incubated for 18 hrs in presence of doxycycline by two fold broth microdilution checkerboard assay
[16] = test system: Pseudomonas aeruginosa; experiment: Antibiotic adjuvant activity against multi-drug resistant Pseudomonas aeruginosa clinical isolate PA262 assessed as fold potentiation incubated for 18 hrs in presence of doxycycline by two fold broth microdilution checkerboard assay
[17] = test system: Pseudomonas aeruginosa; experiment: Antibiotic adjuvant activity against multi-drug resistant Pseudomonas aeruginosa clinical isolate PA264 assessed as minocycline MIC incubated for 18 hrs in presence of minocycline by two fold broth microdilution checkerboard assay
[18] = test system: Acinetobacter baumannii; experiment: Antibiotic adjuvant activity against Acinetobacter baumannii ATCC 17978 assessed as fold potentiation incubated for 18 hrs in presence of Rifampicin by two fold broth microdilution checkerboard assay
[19] = test system: Pseudomonas aeruginosa; experiment: Antibacterial activity against Pseudomonas aeruginosa PAO1 assessed as inhibition of bacterial growth incubated for 18 hrs by two fold broth microdilution assay
[20] = test system: Pseudomonas aeruginosa; experiment: Antibiotic adjuvant activity against multi-drug resistant Pseudomonas aeruginosa clinical isolate 114228 assessed as inhibition of bacterial growth incubated for 18 hrs in presence of Rifampicin by two fold broth microdilution checkerboard assay
[21] = test system: Acinetobacter baumannii; experiment: Antibiotic adjuvant activity against multi-drug resistant Acinetobacter baumannii clinical isolate LAC-4 assessed as rifampicin MIC incubated for 18 hrs in presence of Rifampicin by two fold broth microdilution checkerboard assay
[22] = test system: Acinetobacter baumannii; experiment: Antibiotic adjuvant activity against Acinetobacter baumannii ATCC 17978 assessed as fold potentiation incubated for 18 hrs in presence of vancomycin by two fold broth microdilution checkerboard assay
[23] = test system: Pseudomonas aeruginosa; experiment: Antibiotic adjuvant activity against multi-drug resistant Pseudomonas aeruginosa clinical isolate PA101243 assessed as fold potentiation incubated for 18 hrs in presence of doxycycline by two fold broth microdilution checkerboard assay
[24] = test system: Pseudomonas aeruginosa; experiment: Antibiotic adjuvant activity against multi-drug resistant Pseudomonas aeruginosa clinical isolate PA101243 assessed as inhibition of bacterial growth incubated for 18 hrs in presence of minocycline by two fold broth microdilution checkerboard assay
[25] = test system: Pseudomonas aeruginosa; experiment: Antibiotic adjuvant activity against multi-drug resistant Pseudomonas aeruginosa clinical isolate PA262 assessed as rifampicin MIC incubated for 18 hrs in presence of Rifampicin by two fold broth microdilution checkerboard assay
[26] = test system: Escherichia coli; experiment: Antibacterial activity against multi-drug resistant Escherichia coli clinical isolate 94393 assessed as inhibition of bacterial growth incubated for 18 hrs by two fold broth microdilution assay
[27] = test system: Pseudomonas aeruginosa; experiment: Antibiotic adjuvant activity against multi-drug resistant Pseudomonas aeruginosa clinical isolate PA264 assessed as doxycycline MIC incubated for 18 hrs in presence of doxycycline by two fold broth microdilution checkerboard assay
[28] = test system: Acinetobacter baumannii; experiment: Antibiotic adjuvant activity against Acinetobacter baumannii ATCC 17978 assessed as fold potentiation incubated for 18 hrs in presence of novobiocin by two fold broth microdilution checkerboard assay
[29] = test system: Pseudomonas aeruginosa; experiment: Antibiotic adjuvant activity against multi-drug resistant Pseudomonas aeruginosa clinical isolate PA259 assessed as fold potentiation incubated for 18 hrs in presence of minocycline by two fold broth microdilution checkerboard assay
[30] = test system: Pseudomonas aeruginosa; experiment: Antibiotic adjuvant activity against multi-drug resistant Pseudomonas aeruginosa clinical isolate PA101243 assessed as inhibition of bacterial growth incubated for 18 hrs in presence of doxycycline by two fold broth microdilution checkerboard assay
[31] = test system: Escherichia coli; experiment: Antibiotic adjuvant activity against multi-drug resistant Escherichia coli clinical isolate 94393 assessed as fold potentiation incubated for 18 hrs in presence of Rifampicin by two fold broth microdilution checkerboard assay
[32] = test system: Acinetobacter baumannii; experiment: Antibiotic adjuvant activity against multi-drug resistant Acinetobacter baumannii clinical isolate AB027 assessed as inhibition of bacterial growth incubated for 18 hrs in presence of Rifampicin by two fold broth microdilution checkerboard assay
[33] = test system: Enterococcus faecium; experiment: Antibacterial activity against Enterococcus faecium 128149 assessed as inhibition of bacterial growth incubated for 18 hrs by two fold broth microdilution assay
[34] = test system: Enterococcus faecium; experiment: Antibiotic adjuvant activity against Enterococcus faecium 114278 assessed as rifampicin MIC incubated for 18 hrs in presence of rifampicin by two fold broth microdilution checkerboard assay
[35] = test system: Escherichia coli; experiment: Antibacterial activity against multi-drug resistant Escherichia coli clinical isolate 94474 assessed as inhibition of bacterial growth incubated for 18 hrs by two fold broth microdilution assay
[36] = test system: Escherichia coli; experiment: Antibiotic adjuvant activity against Escherichia coli ATCC 25922 assessed as fold increase in MIC incubated for 18 hrs in presence of rifampicin and CAMHB Mg2+ media by two fold broth microdilution checkerboard assay
[37] = test system: Pseudomonas aeruginosa; experiment: Antibiotic adjuvant activity against multi-drug resistant Pseudomonas aeruginosa clinical isolate PA114228 assessed as fractional inhibitory concentration index incubated for 18 hrs in presence of minocycline by two fold broth microdilution checkerboard assay

Cl.NC[C@H]1O[C@H](O[C@H]2[C@H](OCc3ccccc3)[C@@H](O[C@H]3O[C@H](COCc4ccccc4)[C@@H](OCc4ccccc4)[C@H](N)[C@H]3OCc3ccccc3)[C@H](N)C[C@@H]2N)[C@H](N)C[C@@H]1OCc1ccccc1 showed an MIC [1] of 8 µg/mL, an MIC [2] of 32 µg/mL and an MIC [3] of 0.004 µg/mL. The MIC [4] was 1 µg/mL, the “fold change (FC)” value [5] was 64 and the MIC [6] was 0.5 µg/mL. For the same compound, the “fold change (FC)” value [7] was 1, the MIC [8] was 8 µg/mL and the “fold change (FC)” value [9] was 32. The MIC [10] was 16 µg/mL, the MIC [11] was 32 µg/mL and the “fold change (FC)” value [12] was 1. For the same compound, the MIC [13] was 2 µg/mL, the “fractional inhibitory concentration index (FICI)” value [14] was 0.078 and the MIC [15] was 8 µg/mL. For the same compound, the “fold change (FC)” value [16] was 1, the MIC [17] was 16 µg/mL and the “fold change (FC)” value [18] was 8. It also gave an MIC [19] of 64 µg/mL, an MIC [20] of 8 µg/mL and an MIC [21] of 0.002 µg/mL. The “fold change (FC)” value [22] was 8, the “fold change (FC)” value [23] was 1 and the MIC [24] was 8 µg/mL. It also gave an MIC [25] of 512 µg/mL, an MIC [26] of 32 µg/mL and an MIC [27] of 64 µg/mL. For the same compound, the “fold change (FC)” value [28] was 2048, the “fold change (FC)” value [29] was 1 and the MIC [30] was 8 µg/mL. The “fold change (FC)” value [31] was 1, the MIC [32] was 8 µg/mL and the MIC [33] was 16 µg/mL. The MIC [34] was 4 µg/mL, the MIC [35] was 32 µg/mL and the “fold change (FC)” value [36] was “>=2”. For the same compound, the “fractional inhibitory concentration index (FICI)” value [37] was 1.063.
